SMILES strings stand for the structures.

Consider five compounds from publication PMC12586182 (Frontiers in Oncology, 2025).

Test in all cases: Kinase panel profiling at 1 µmol/L (mobility shift assay, Carna)
Common to all, as to type: biochemical
What all share (details): 1 µmol/L of BTK inhibitor

The target in one assay is T1, HER4 (Homo sapiens, UniProt Q15303).
T1 construct: purchased Carna Biosciences

A further assay concerns the target T2, PDK1 (Homo sapiens, UniProt O15530).
T2 construct: purchased Carna Biosciences
T2 sequence (O15530 1-556): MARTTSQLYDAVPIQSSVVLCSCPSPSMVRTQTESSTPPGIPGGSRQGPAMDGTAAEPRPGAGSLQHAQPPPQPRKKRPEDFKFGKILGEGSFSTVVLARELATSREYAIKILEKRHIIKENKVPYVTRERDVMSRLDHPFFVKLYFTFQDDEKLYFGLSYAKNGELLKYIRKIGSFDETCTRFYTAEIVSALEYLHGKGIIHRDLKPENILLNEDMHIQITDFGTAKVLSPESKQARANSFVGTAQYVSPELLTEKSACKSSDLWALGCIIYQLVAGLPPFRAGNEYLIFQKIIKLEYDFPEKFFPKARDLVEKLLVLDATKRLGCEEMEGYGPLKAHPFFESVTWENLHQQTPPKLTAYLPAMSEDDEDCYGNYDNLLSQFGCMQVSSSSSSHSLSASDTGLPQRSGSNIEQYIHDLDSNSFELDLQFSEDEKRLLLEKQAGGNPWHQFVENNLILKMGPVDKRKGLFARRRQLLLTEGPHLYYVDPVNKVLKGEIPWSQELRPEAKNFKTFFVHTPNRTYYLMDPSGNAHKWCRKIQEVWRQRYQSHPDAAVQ

For another assay, the target named is T3, CK2α1/β (Homo sapiens, UniProt P68400).
T3 construct: purchased Carna Biosciences
T3 sequence (P68400 whole entry): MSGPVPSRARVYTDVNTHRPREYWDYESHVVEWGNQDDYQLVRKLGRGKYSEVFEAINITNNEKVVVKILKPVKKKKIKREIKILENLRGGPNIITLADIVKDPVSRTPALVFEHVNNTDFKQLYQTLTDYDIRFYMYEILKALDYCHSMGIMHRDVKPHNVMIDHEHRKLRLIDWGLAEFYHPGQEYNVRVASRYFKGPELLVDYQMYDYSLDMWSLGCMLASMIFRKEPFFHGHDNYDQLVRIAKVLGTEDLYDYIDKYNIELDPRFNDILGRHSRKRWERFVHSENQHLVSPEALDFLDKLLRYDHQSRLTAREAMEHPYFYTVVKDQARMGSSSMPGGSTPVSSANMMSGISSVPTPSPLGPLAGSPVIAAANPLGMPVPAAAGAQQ
T3 sequence (P67870 whole entry partner): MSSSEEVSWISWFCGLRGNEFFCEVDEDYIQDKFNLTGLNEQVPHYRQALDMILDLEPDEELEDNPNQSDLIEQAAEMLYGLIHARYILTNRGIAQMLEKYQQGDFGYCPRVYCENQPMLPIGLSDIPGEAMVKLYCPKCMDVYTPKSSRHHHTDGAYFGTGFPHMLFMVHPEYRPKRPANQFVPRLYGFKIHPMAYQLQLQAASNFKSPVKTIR

The next assay addresses T4, AurA (Homo sapiens, UniProt O14965).
T4 construct: purchased Carna Biosciences
T4 sequence (O14965 1-403): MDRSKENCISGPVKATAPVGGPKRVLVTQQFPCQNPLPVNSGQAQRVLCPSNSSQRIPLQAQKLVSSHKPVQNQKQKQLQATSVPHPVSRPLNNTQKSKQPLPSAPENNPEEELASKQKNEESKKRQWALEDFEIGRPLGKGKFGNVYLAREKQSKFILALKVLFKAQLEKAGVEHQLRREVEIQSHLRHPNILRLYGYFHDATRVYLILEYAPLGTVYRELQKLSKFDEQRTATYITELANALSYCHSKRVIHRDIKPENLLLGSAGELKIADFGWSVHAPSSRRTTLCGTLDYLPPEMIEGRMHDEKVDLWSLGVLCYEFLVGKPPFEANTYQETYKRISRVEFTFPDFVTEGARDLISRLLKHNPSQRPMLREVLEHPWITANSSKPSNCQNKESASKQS

The next assay concerns the target T5, MARK1 (Homo sapiens, UniProt Q9P0L2).
T5 construct: purchased Carna Biosciences

Another assay addresses T6, DDR1 (Homo sapiens, UniProt Q08345).
T6 construct: purchased Carna Biosciences

In the next assay the target is T7, PDHK2 (Homo sapiens, UniProt Q15119).
T7 construct: purchased Carna Biosciences

A further assay addresses T8, ZAP70 (Homo sapiens, UniProt P43403).
T8 construct: purchased Carna Biosciences
T8 sequence (P43403 1-619): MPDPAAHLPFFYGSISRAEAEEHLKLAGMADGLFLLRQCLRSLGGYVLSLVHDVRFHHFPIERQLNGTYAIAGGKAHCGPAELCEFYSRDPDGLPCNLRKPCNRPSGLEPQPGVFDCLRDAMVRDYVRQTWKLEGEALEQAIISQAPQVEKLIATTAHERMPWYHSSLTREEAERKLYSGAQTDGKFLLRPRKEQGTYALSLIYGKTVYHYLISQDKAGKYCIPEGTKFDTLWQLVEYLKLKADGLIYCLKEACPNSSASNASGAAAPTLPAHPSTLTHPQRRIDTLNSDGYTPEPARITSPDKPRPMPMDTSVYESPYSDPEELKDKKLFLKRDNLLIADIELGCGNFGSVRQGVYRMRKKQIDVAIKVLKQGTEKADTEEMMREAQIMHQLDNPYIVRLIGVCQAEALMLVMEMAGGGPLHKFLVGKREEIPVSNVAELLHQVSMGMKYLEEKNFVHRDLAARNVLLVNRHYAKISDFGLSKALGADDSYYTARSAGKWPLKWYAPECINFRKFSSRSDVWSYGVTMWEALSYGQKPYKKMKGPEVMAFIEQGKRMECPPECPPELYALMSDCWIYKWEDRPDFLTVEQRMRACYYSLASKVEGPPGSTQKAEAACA

The next assay concerns the target T9, PKCα (Homo sapiens, UniProt P17252).
T9 construct: purchased Carna Biosciences

T6 sequence (Q08345 19-913): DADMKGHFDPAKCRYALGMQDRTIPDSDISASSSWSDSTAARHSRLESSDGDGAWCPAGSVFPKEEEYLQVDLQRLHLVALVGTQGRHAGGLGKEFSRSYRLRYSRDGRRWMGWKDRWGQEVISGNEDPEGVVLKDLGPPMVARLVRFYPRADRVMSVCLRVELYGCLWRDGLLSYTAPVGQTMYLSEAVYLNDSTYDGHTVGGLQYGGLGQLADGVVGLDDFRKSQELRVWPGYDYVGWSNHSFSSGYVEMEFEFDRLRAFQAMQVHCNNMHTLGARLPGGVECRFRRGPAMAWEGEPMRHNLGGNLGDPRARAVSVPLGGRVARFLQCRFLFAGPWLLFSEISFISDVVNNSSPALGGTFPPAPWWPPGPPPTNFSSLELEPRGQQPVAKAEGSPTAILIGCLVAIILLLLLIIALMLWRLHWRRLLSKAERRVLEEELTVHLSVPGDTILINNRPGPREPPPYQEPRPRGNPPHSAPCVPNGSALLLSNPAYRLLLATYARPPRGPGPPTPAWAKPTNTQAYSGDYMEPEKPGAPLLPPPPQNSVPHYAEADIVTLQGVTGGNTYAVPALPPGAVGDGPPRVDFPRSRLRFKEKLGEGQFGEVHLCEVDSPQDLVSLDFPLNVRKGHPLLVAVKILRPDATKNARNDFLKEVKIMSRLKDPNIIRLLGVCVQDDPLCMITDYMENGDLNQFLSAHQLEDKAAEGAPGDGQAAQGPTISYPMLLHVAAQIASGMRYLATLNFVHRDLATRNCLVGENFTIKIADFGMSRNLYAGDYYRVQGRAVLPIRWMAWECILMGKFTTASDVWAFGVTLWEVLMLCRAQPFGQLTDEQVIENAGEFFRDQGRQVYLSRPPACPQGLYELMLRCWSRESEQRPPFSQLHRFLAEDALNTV
T1 sequence (Q15303 26-1308): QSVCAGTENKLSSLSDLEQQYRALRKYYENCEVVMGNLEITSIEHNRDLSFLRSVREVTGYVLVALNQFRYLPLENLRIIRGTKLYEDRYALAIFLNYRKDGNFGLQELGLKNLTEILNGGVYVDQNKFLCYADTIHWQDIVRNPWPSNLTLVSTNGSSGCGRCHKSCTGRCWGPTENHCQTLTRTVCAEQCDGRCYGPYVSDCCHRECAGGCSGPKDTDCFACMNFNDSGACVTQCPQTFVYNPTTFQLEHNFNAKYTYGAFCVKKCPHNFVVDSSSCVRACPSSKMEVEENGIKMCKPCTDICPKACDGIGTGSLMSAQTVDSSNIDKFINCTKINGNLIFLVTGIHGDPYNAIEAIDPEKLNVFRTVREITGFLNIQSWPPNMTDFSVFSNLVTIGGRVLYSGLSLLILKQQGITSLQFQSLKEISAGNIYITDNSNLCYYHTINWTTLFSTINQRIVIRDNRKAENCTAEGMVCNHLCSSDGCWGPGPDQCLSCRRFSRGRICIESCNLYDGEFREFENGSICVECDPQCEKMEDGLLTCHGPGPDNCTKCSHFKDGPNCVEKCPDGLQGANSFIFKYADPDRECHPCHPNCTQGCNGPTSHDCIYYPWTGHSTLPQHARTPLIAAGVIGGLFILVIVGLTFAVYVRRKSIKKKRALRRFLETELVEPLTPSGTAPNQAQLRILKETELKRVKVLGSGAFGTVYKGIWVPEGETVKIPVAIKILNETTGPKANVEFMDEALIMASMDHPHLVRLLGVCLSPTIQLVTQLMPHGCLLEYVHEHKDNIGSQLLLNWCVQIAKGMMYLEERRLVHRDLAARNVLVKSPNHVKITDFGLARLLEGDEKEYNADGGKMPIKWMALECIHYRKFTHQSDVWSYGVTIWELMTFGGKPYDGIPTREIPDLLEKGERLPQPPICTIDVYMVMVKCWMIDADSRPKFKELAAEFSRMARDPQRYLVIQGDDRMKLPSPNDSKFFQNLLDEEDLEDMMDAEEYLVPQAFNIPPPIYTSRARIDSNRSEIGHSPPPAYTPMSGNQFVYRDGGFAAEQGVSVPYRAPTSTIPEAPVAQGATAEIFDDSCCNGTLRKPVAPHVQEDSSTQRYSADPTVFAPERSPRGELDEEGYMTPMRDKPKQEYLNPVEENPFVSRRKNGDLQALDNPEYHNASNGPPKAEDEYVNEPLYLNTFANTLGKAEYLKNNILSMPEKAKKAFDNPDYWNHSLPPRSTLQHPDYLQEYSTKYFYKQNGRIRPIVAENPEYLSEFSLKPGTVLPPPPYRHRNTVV
T5 sequence (Q9P0L2 whole entry): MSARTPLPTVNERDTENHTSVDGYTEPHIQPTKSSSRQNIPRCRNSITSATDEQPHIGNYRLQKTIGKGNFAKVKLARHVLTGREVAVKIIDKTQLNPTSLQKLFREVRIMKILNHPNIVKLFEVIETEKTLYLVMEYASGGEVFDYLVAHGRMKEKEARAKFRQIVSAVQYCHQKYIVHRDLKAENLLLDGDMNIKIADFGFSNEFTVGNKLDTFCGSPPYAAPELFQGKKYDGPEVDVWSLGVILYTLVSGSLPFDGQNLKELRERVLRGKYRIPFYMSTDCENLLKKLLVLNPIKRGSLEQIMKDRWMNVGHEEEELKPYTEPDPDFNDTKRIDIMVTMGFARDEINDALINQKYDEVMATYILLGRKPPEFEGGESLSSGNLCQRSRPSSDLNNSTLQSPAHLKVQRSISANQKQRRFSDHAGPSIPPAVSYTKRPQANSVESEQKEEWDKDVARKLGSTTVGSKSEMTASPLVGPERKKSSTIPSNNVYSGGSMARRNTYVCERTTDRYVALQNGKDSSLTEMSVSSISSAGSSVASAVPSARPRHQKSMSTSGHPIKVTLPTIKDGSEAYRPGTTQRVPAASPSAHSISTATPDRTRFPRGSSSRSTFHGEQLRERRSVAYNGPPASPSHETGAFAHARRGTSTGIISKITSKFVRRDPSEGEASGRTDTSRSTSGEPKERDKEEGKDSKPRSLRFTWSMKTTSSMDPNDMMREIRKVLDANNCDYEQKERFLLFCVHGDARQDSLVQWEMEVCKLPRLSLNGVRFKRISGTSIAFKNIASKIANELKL

For the compound `C=CC(=O)N1CCC([C@@H]2CCNc3c(C(N)=O)c(-c4ccc(Oc5ccccc5)cc4)nn32)CC1` [zanubrutinib], the “Percentage inhibition of kinase enzyme activity” value (“Percentage inhibition” for short) on HER4 is listed as 2.98%.

With `CC#CC(=O)N1CCC[C@H]1c1nc(-c2ccc(C(=O)Nc3ccccn3)cc2)c2c(N)nccn12` [acalabrutinib], the “Percentage inhibition” value on PDK1 is on record as -1.47%; at CK2α1/β it was 5.34%; at AurA, 2.34%; at HER4 it was 77.61%; at MARK1, -3.49%; at DDR1, 7.80%. In addition, the entries for the “Percentage inhibition” value at PDHK2, on ZAP70 and on PKCα were 0.16%, -1.53% and -16.89%, respectively.

For the compound `COc1ccc(F)cc1C(=O)NCc1ccc(-c2nn([C@@H](C)C(F)(F)F)c(N)c2C(N)=O)cc1` [pirtobrutinib], the “Percentage inhibition” value at PDK1 is given as -1.19%; on CK2α1/β, -1.74%; on AurA it was 27.17%; on HER4, 69.88%; on MARK1, -8.44%; on DDR1, 2.52%. Moreover, the “Percentage inhibition” value on PDHK2 is 0.06%; on ZAP70, -3.75%; at PKCα, 11.69%.

On to `O=C(c1ccc(Oc2ccccc2)cc1Cl)c1c[nH]c2ncnc(N[C@@H]3CC[C@@H](CO)OC3)c12` [nemtabrutinib], for which the “Percentage inhibition” value was 2.54% on PDK1; -2.75% at CK2α1/β; 77.82% at AurA; 95.14% at HER4; 2.15% on MARK1; 93.81% at DDR1. In addition, the “Percentage inhibition” value is on record as 4.18% at PDHK2, 8.61% at ZAP70 and -0.64% at PKCα.

Consider `C=CC(=O)N1CCC[C@@H](n2nc(-c3ccc(Oc4ccccc4)cc3)c3c(N)ncnc32)C1` [ibrutinib], for which the “Percentage inhibition” value on PDK1 was -2.01%; at CK2α1/β, -11.11%; on AurA, 29.84%; at HER4, 98.60%; on MARK1, 2.46%; on DDR1, 37.17%. In addition, the “Percentage inhibition” value at PDHK2 was -1.08%; at ZAP70, -4.51%; at PKCα it was 0.74%.
